Experimental findings from patent US20060088579A1, “Transdermal drug delivery systems” (priority 2002, published 2006) are described below.

Usually Papp stands for a coefficient for how fast a substance crosses the barrier.

Where “and” joins values, the source holds several entries; their conditions need not be identical. Equal values may be shown once. Where a name gives a salt, the structure may show the parent alone.

A short description of series [1]: in vitro. As to conditions: human, pH 7.4.
Series [2] is described as follows: LDA chaperoning: lidocaine and NMP flux with 1% LDA in IPM or NMP solvent. The format is in vitro ADME, human. The conditions noted are these: for NMP Fluxss: NMP solvent. The text has this:
(ii) Preparation of Skin Samples. […] (iii) Transport Experiments. […] J. […] (iv) LDA Chaperoning. […] The LDA's included octadecene, oleyl alcohol, and oleic acid. Similar solutions with NMP as the solvent were also obtained. […] (viii) Quantification of Transport. […] (ix) Calculations. […] D. Results

Series [3] is described as follows: IPM/NMP binary vehicle transport, 2% w/v lidocaine free base. Format: in vitro ADME, human. The text has this: (iii) Preparation of Skin Samples. […] (iv) Lidocaine Transport Experiments. […] J. […] (v) IPM/NMP Binary Vehicle Transport. […] (vi) Quantification of Lidocaine. […] (vii) Calculations.
Series [4] can be described thus: H2O/NMP binary vehicle transport.
Series [5] in a line: NMP partitioning between IPM and H2O. Format: physicochemical. As to conditions: equilibrium mixture of H2O and IPM. The method, then: (vii) NMP Patitioning. Distilled water (2 ml), IPM (2 ml), and NMP (40 μl) were thoroughly vortexed in a glass tube. After equilibrating for 1 hour, the sample was centrifuged at 14,000 rpm for 6 minutes and separated into 2 phases. Samples of each phase were taken to determine NMP concentration by HPLC.
(viii) Quantification of Transport.

Series [6] can be described thus: Microemulsion phase diagrams, drug load and stability. The format is physicochemical. As to conditions: O/W ME. The method, then: (i) Microemulsion Phase Diagrams. Four microemulsion (ME) systems were investigated to determine their ternary phase diagrams. All percentages are given as mass ratios.
Each of the three components for a system was titrated until a phase change between microemulsion and two phase mixture was observed. The boundary of this transition was recorded over the entire concentration range. A microemulsion was determined as a miscible, optically clear, stable solution. At the transition to a two phase regime, there is a clear clouding of the mixture as well as an eventual separation of the phases.
(ii) Preparation of Formulations. […] Drug flux was tested through ME system 1 at two selected concentrations, one in the W/O region, and the other in the O/W. The W/O system consisted of H2O:IPM:Tween 80 (10:52:38 w/w) while the O/W system contained H2O:Ethanol:IPM:Tween 80 (27:18:16:39 w/w). Both systems stably incorporated 10% w/w NMP and 10% w/w oleyl alcohol. […] The “water phase” sample consisted of the aqueous elements H2O:Ethanol:NMP (51:31:18) in the same relative proportions as if the organic components were removed.

For series [7] the following is noted: human, pH 7.4.
The conditions of series [8]: human, 24 h, 2 % w/v, pH 7.4.
Protocol: Flux through stripped human skin was compared with flux of the same drugs through distilled water. […] All drug concentrations were analyzed by HPLC.

`CN1CCCC1=O` [NMP, n-methyl pyrrolidone] showed an apparent permeability (Papp) at 24 h, 10 % v/v in series [1] of 0.03 ×10⁻⁶ cm/s. In series [1], this molecule gave a Papp at 24 h, 20 % v/v of 0.0178 ×10⁻⁶ cm/s. This molecule also had a Papp at 24 h, 40 % v/v in series [1] of 0.0281 ×10⁻⁶ cm/s. The Papp at 24 h, 50 % v/v in series [1] is 0.00861 ×10⁻⁶ cm/s. In series [1], the Papp at 24 h, 60 % v/v was 0.0758 ×10⁻⁶ cm/s. Moreover, the Papp at 24 h, 80 % v/v in series [1] is 1.74 ×10⁻⁶ cm/s. This molecule also had a Papp at 24 h, 90 % v/v in series [1] of 4.36 ×10⁻⁶ cm/s. For the same molecule, in series [1], the Papp at 24 h, 100 % v/v is 1.75 ×10⁻⁶ cm/s. Also, the “NMP Fluxss” value in series [2] (1% w/v isopropyl myristate) was 15.8 ± 3.6 mg/cm^2/hr; in series [2] (1% w/v octadecene), 15.3 ± 1.2 mg/cm^2/hr; in series [2] (1% w/v oleic acid), 17.6 ± 2.0 mg/cm^2/hr; in series [2] (1% w/v oleyl alcohol), 20.7 ± 1.0 mg/cm^2/hr; in series [2] (no LDA), 12.6±0.5 mg/cm^2/hr; in series [3] (10% NMP (v/v)), 1.46 ± 0.9 μg cm^−2 hr^−1. Also, the “NMP Fluxss” value in series [3] (25% NMP (v/v)) turned out to be 5.40 ± 0.49 μg cm^−2 hr^−1; in series [3] (50% NMP (v/v)), 9.01 ± 0.84 μg cm^−2 hr^−1; in series [3] (60% NMP (v/v)), 11.2 ± 1.2 μg cm^−2 hr^−1; in series [3] (75% NMP (v/v)), 14.0 ± 0.9 μg cm^−2 hr^−1; in series [3] (90% NMP (v/v)), 11.7 ± 0.1 μg cm^−2 hr^−1; in series [3] (100% NMP (v/v)), 10.7 ± 0.2 μg cm^−2 hr^−1. In addition, the “NMP Fluxss” value in series [4] (10% NMP) worked out at 0.007 ± 0.007 μg/cm^2/hr; in series [4] (20% NMP) it was 0.008 ± 0.003 μg/cm^2/hr; in series [4] (40% NMP), 0.026 ± 0.021 μg/cm^2/hr; in series [4] (50% NMP) it was 0.010 ± 0.002 μg/cm^2/hr; in series [4] (60% NMP), 0.106 ± 0.058 μg/cm^2/hr; in series [4] (80% NMP) it was 3.26 ± 0.74 μg/cm^2/hr. Also, the results for the “NMP Fluxss” value in series [4] (90% NMP) and in series [4] (100% NMP) were 9.18 ± 0.53 μg/cm^2/hr and 12.6 ± 0.5 μg/cm^2/hr, respectively. In addition, the “flux of NMP through human skin” value in series [2] (approximate value) is roughly 10 mg/cm^2/hr. Further, the “NMP 24 Hour Transport” value was determined as 22.8 ± 3.7 µg in series [3] (10% NMP (v/v)); 83.6 ± 5.7 µg in series [3] (25% NMP (v/v)); 112 ± 5.3 µg in series [3] (50% NMP (v/v)); 134 ± 13 µg in series [3] (60% NMP (v/v)); 161 ± 6 µg in series [3] (75% NMP (v/v)); 128 ± 1 µg in series [3] (90% NMP (v/v)). The “NMP 24 Hour Transport” value in series [3] (100% NMP (v/v)) was found to be 115 ± 0.2 µg. Also, the “NMP partition in the water phase” value in series [5] was 98%. Moreover, the “[IPM]/[H2O] partition coefficient of NMP” value in series [5] was 0.02±0.001 and 0.02.

`CCCCCCCCCCCCCC(=O)OC(C)C` [IPM, isopropyl myristate]: the “% IPM Uptake (maximum)” value is 47 % (w/w) in series [6] (Tween 80/Ethanol ratio 1:1); 8.3 % (w/w) in series [6] (Tween 80/Ethanol ratio 1:2); 42 % (w/w) in series [6] (Tween 80/Ethanol ratio 2:1); 8.1 % (w/w) in series [6] (Tween 80/Ethanol ratio 2:3); 4.5 % (w/w) in series [6] (Tween 80/Ethanol ratio 4:1); 1.6 % (w/w) in series [6] (Tween 80/Ethanol ratio 9:1).

Consider `C[C@]12CC[C@@H]3c4ccc(O)cc4CC[C@H]3[C@@H]1CC[C@@H]2O` [Estradiol], for which the “time at which steady state is reached in vitro” value in series [7] is “about 4 hours”.

Turning to `CCCNC(C)C(=O)Nc1ccccc1C` (centres unmarked) [Prilocaine HCl], in series [8], the “Fluxss from H2O” value was 2.44 ± 0.98 μg/cm^2/hr and the “Fluxss from H2O/NMP” value came to 6.31 ± 0.14 μg/cm^2/hr.
